{"source": "ChEMBL document CHEMBL4382213", "about": "“Identification and characterization of agnuside, a natural proangiogenic small molecule” (Eur J Med Chem, 2018)", "key": {"HUVEC [1]": {"tested_on": "HUVEC", "assay": "Pro-angiogenic activity in HUVEC assessed as increase in cell proliferation at 2500 ng/ml after 96 hrs by DAPI staining-based spectrofluorometric analysis relative to control", "type": "functional, Homo sapiens"}, "HUVEC [2]": {"tested_on": "HUVEC", "assay": "Pro-angiogenic activity in HUVEC assessed as increase in cell proliferation at 2500 ng/ml after 24 to 72 hrs by DAPI staining-based spectrofluorometric analysis relative to control", "type": "functional, Homo sapiens"}, "HUVEC [3]": {"tested_on": "HUVEC", "assay": "Pro-angiogenic activity in HUVEC assessed as increase in cell proliferation after 96 hrs by DAPI staining-based spectrofluorometric analysis", "type": "functional", "details": "Homo sapiens"}, "HUVEC [4]": {"tested_on": "HUVEC", "assay": "Effect on cell morphology in HUVEC at 1 to 2500 ng/ml after 24 to 96 hrs by DAPI staining-based spectrofluorometric analysis", "type": "functional", "details": "Homo sapiens"}, "HUVEC [5]": {"tested_on": "HUVEC", "assay": "Pro-angiogenic activity in HUVEC assessed as increase in meshes formation after 22 hrs by phase-contrast image analysis", "type": "functional, cell-based", "details": "Homo sapiens"}, "HUVEC [6]": {"tested_on": "HUVEC", "assay": "Pro-angiogenic activity in HUVEC assessed as increase in meshes formation at 0.1 to 10 ng/ml after 22 hrs by phase-contrast image analysis", "type": "functional, cell-based", "details": "Homo sapiens"}, "HUVEC [7]": {"tested_on": "HUVEC", "assay": "Pro-angiogenic activity in HUVEC assessed as increase in tubular network formation at 0.1 ng/ml after 22 hrs by phase-contrast image analysis", "type": "functional, cell-based", "details": "Homo sapiens"}, "HUVEC [8]": {"tested_on": "HUVEC", "assay": "Pro-angiogenic activity in HUVEC assessed as increase in tubular network formation at 0.1 ng/ml preincubated for 30 mins followed by ZM 323881 HCl addition and measured after 22 hrs by phase-contrast image analysis", "type": "functional, cell-based", "details": "Homo sapiens"}, "HUVEC [9]": {"tested_on": "HUVEC", "assay": "[…] activity in HUVEC assessed as wound closure at 100 ng/ml after 24 hrs by phase-contrast microscopic analysis", "type": "functional, cell-based", "details": "Homo sapiens"}}, "note": "Active and inactive are the calls of the source. The rule behind the calls is not given here.", "data": [{"smiles": "O=C(OCC1=C[C@@H](O)[C@@H]2C=CO[C@@H](O[C@@H]3O[C@H](CO)[C@@H](O)[C@H](O)[C@H]3O)[C@H]12)c1ccc(O)cc1", "note": "[AGNUSIDE]", "values": [{"measurement": "Activity", "setting": "HUVEC [1]", "result": "<=56%"}, {"measurement": "Activity", "setting": "HUVEC [2]", "result": "20 - 30%"}, {"measurement": "EC50", "setting": "HUVEC [3]", "result": 1.38, "unit": "µg/mL"}, {"measurement": "Activity", "setting": "HUVEC [4]", "result": "inactive"}, {"measurement": "Activity", "setting": "HUVEC [5]", "result": "Dose-dependent effect"}, {"measurement": "Activity", "setting": "HUVEC [6]", "result": "inactive"}, {"measurement": "Activity", "setting": "HUVEC [7]", "result": "Active"}, {"measurement": "Activity", "setting": "HUVEC [8]", "result": "Active"}, {"measurement": "Activity", "setting": "HUVEC [9]", "result": "Active"}]}]}
